Measured values published in patent US4921850A, “3-propenylcephem derivative” (Eisai Co., Ltd., priority 1986, dated 1990).
Converted amounts (≈) assume the structure as drawn. Like-named read-outs stand apart in the source and are kept apart here.

Key:
Experiment in all cases: Anti-bacterial activity (MIC), agar dilution
Format in all cases: cell-based
Staph. aureus 209-P = conditions: Staph. aureus 209-P, agar dilution, about 10^6 CFU/ml, 18 hours, 37° C.
Summary of the method: (§1)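 Overnight Mueller-Hinton broth cultures were diluted to about 10^6 CFU/ml and spotted onto Mueller-Hinton agar plates carrying twofold serial dilutions of antibiotic. After 18 hours at 37° C, MIC (μg/ml) was determined by agar dilution.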

[1] = test system: Morganella morganii EP-14; conditions: about 10^6 CFU/ml, 37° C.
Summary of the method: as §1

Ser. marcescens ES-75 = conditions: Ser. marcescens ES-75, agar dilution, about 10^6 CFU/ml, 18 hours, 37° C.
Summary of the method: as §1

Pseud. aeruginosa EP-01 = conditions: Pseud. aeruginosa EP-01, agar dilution, about 10^6 CFU/ml, 18 hours, 37° C.
Summary of the method: as §1

Escher. coli NIHJ = conditions: Escher. coli NIHJ, agar dilution, about 10^6 CFU/ml, 18 hours, 37° C.
Summary of the method: as §1

Kleb. pneumoniae EK-6 = conditions: Kleb. pneumoniae EK-6, agar dilution, about 10^6 CFU/ml, 18 hours, 37° C.
Summary of the method: as §1

[2] = Staphylococcus aureus, 209P, 18 h, read-out: MIC
[3] = Morganella morganii, EP14, 18 h, read-out: MIC
[4] = Serratia marcescens, ES75, 18 h, read-out: MIC
[5] = Pseudomonas aeruginosa, EP01, 18 h, read-out: MIC
[6] = Escherichia coli, 18 h, read-out: MIC
[7] = Klebsiella pneumoniae, EK6, 18 h, read-out: MIC

| Compound | MIC (Staph. aureus 209-P; [2]) [µg/mL] | MIC [1, 3] [µg/mL] | MIC (Ser. marcescens ES-75; [4]) [µg/mL] | MIC (Pseud. aeruginosa EP-01; [5]) [µg/mL] | MIC (Escher. coli NIHJ; [6]) [µg/mL] | MIC (Kleb. pneumoniae EK-6; [7]) [µg/mL] | MIC (Staph. aureus 209-P) [µg/mL] | MIC ([1]; 18 hours) [µg/mL] | MIC (Ser. marcescens ES-75) [µg/mL] | MIC (Pseud. aeruginosa EP-01) [µg/mL] | MIC (Escher. coli NIHJ) [µg/mL] | MIC (Kleb. pneumoniae EK-6) [µg/mL] |
| --- | --- | --- | --- | --- | --- | --- | --- | --- | --- | --- | --- | --- |
| Nc1nc(/C(=N/OCF)C(=O)N[C@@H]2C(=O)N3C(C(=O)[O-])=C(/C=C/C[n+]4ccc(C(=O)NCCO)cc4)CS[C@H]23)ns1 [Example 84] | 0.4 (≈ 0.659 µM) | 0.05 (≈ 0.0824 µM) | 0.1 (≈ 0.165 µM) | 1.56 (≈ 2.57 µM) | 0.05 (≈ 0.0824 µM) | ≤ 0.025 | – | – | – | – | – | – |
| NC(=O)Cc1ccc[n+](C/C=C/C2=C(C(=O)[O-])N3C(=O)[C@@H](NC(=O)/C(=N\OCF)c4nsc(N)n4)[C@H]3SC2)c1 [Example 85] | 0.2 (≈ 0.347 µM) | ≤ 0.025 | ≤ 0.025 | 1.56 (≈ 2.71 µM) | ≤ 0.025 | ≤ 0.025 | – | – | – | – | – | – |
| C[N+](C)(C/C=C/C1=C(C(=O)[O-])N2C(=O)[C@@H](NC(=O)/C(=N\OCF)c3nsc(N)n3)[C@H]2SC1)CC(O)CO (stereo partly drawn) [Example 88] | 0.2 (≈ 0.357 µM) | ≤ 0.025 | ≤ 0.025 | 0.8 (≈ 1.43 µM) | ≤ 0.025 | ≤ 0.025 | – | – | – | – | – | – |
| C[N+]1(CC=CC2=C(C(=O)[O-])N3C(=O)C(NC(=O)C(=NOCF)c4nsc(N)n4)C3SC2)CC(O)CC1CO (stereo not drawn) [Example 89-1] | 0.2 (≈ 0.35 µM) | ≤ 0.025 | ≤ 0.025 | 0.8 (≈ 1.4 µM) | ≤ 0.025 | ≤ 0.025 | – | – | – | – | – | – |
| C[N+]1(CC=CC2=C(C(=O)[O-])N3C(=O)C(NC(=O)C(=NOCF)c4nsc(N)n4)C3SC2)CC(O)CC1CO (stereo not drawn) [Example 89-2] | – | – | – | – | – | – | 0.2 (≈ 0.35 µM) | ≤ 0.025 | ≤ 0.025 | 0.8 (≈ 1.4 µM) | ≤ 0.025 | ≤ 0.025 |
| C[N+]1(C/C=C/C2=C(C(=O)[O-])N3C(=O)[C@@H](NC(=O)/C(=N\OCF)c4nsc(N)n4)[C@H]3SC2)CCC(O)CC1 (stereo partly drawn) [Example 90] | 0.2 (≈ 0.36 µM) | 0.05 (≈ 0.09 µM) | ≤ 0.025 | 0.8 (≈ 1.44 µM) | 0.05 (≈ 0.09 µM) | ≤ 0.025 | – | – | – | – | – | – |
| Nc1nc(/C(=N/OCF)C(=O)N[C@@H]2C(=O)N3C(C(=O)[O-])=C(/C=C/C[N+]4(CCO)CCC(O)CC4)CS[C@H]23)ns1 (stereo partly drawn) [Example 91] | 0.2 (≈ 0.342 µM) | ≤ 0.025 | ≤ 0.025 | 1.56 (≈ 2.66 µM) | 0.05 (≈ 0.0854 µM) | ≤ 0.025 | – | – | – | – | – | – |
| C[N+](C)(C/C=C/C1=C(C(=O)[O-])N2C(=O)[C@@H](NC(=O)/C(=N\OCF)c3nsc(N)n3)[C@H]2SC1)CC(=O)NCO [Example 92] | 0.2 (≈ 0.349 µM) | ≤ 0.025 | ≤ 0.025 | 0.8 (≈ 1.4 µM) | ≤ 0.025 | ≤ 0.025 | – | – | – | – | – | – |
| C[N+](C)(C/C=C/C1=C(C(=O)[O-])N2C(=O)[C@@H](NC(=O)/C(=N\OCF)c3nsc(N)n3)[C@H]2SC1)CCC(N)=O [Example 93] | 0.2 (≈ 0.359 µM) | ≤ 0.025 | ≤ 0.025 | 0.8 (≈ 1.44 µM) | ≤ 0.025 | ≤ 0.025 | – | – | – | – | – | – |
| C[N+]1(C/C=C/C2=C(C(=O)[O-])N3C(=O)[C@@H](NC(=O)/C(=N\OCF)c4nsc(N)n4)[C@H]3SC2)CCCN(C(N)=O)CC1 (stereo partly drawn) [Example 94] | 0.2 (≈ 0.335 µM) | ≤ 0.025 | ≤ 0.025 | 0.8 (≈ 1.34 µM) | ≤ 0.025 | ≤ 0.025 | – | – | – | – | – | – |
| C[N+](C)(C/C=C/C1=C(C(=O)[O-])N2C(=O)[C@@H](NC(=O)/C(=N\OCF)c3nsc(N)n3)[C@H]2SC1)C(CO)CO [Example 95] | 0.2 (≈ 0.357 µM) | ≤ 0.025 | ≤ 0.025 | 0.8 (≈ 1.43 µM) | 0.05 (≈ 0.0893 µM) | ≤ 0.025 | – | – | – | – | – | – |
| CNC(=O)CC[N+](C)(C)C/C=C/C1=C(C(=O)[O-])N2C(=O)[C@@H](NC(=O)/C(=N\OCF)c3nsc(N)n3)[C@H]2SC1 [Example 97] | 0.2 (≈ 0.35 µM) | ≤ 0.025 | ≤ 0.025 | 0.8 (≈ 1.4 µM) | ≤ 0.025 | ≤ 0.025 | – | – | – | – | – | – |
| CN(C)C(=O)CC[N+](C)(C)C/C=C/C1=C(C(=O)[O-])N2C(=O)[C@@H](NC(=O)/C(=N\OCF)c3nsc(N)n3)[C@H]2SC1 [Example 98] | 0.4 (≈ 0.684 µM) | ≤ 0.025 | 0.05 (≈ 0.0855 µM) | 3.13 (≈ 5.35 µM) | 0.05 (≈ 0.0855 µM) | 0.05 (≈ 0.0855 µM) | – | – | – | – | – | – |
| COCC[N+](C)(C)C/C=C/C1=C(C(=O)[O-])N2C(=O)[C@@H](NC(=O)/C(=N\OCF)c3nsc(N)n3)[C@H]2SC1 [Example 99] | 0.2 (≈ 0.368 µM) | ≤ 0.025 | ≤ 0.025 | 1.56 (≈ 2.87 µM) | ≤ 0.025 | ≤ 0.025 | – | – | – | – | – | – |
| NC(=O)N1CCC[N+](C/C=C/C2=C(C(=O)[O-])N3C(=O)[C@@H](NC(=O)/C(=N\OCF)c4nsc(N)n4)[C@H]3SC2)(CCO)CC1 (stereo partly drawn) [Example 101] | 0.2 (≈ 0.319 µM) | ≤ 0.025 | ≤ 0.025 | 1.56 (≈ 2.49 µM) | 0.05 (≈ 0.0797 µM) | ≤ 0.025 | – | – | – | – | – | – |
| C[N+](C)(C/C=C/C1=C(C(=O)[O-])N2C(=O)[C@@H](NC(=O)/C(=N\OCF)c3nsc(N)n3)[C@H]2SC1)Cc1ccn[nH]1 [Example 102] | 0.2 (≈ 0.354 µM) | ≤ 0.025 | 0.05 (≈ 0.0884 µM) | 1.56 (≈ 2.76 µM) | ≤ 0.025 | ≤ 0.025 | – | – | – | – | – | – |
| Nc1ccc[n+](C/C=C/C2=C(C(=O)[O-])N3C(=O)[C@@H](NC(=O)/C(=N\OCF)c4nsc(N)n4)[C@H]3SC2)c1 [Example 103] | 0.1 (≈ 0.187 µM) | ≤ 0.025 | ≤ 0.025 | 3.13 (≈ 5.86 µM) | ≤ 0.025 | ≤ 0.025 | – | – | – | – | – | – |
| C[N+](C)(C/C=C/C1=C(C(=O)[O-])N2C(=O)[C@@H](NC(=O)/C(=N\OCF)c3nsc(N)n3)[C@H]2SC1)Cc1cnc[nH]1 [Example 106] | 0.4 (≈ 0.707 µM) | 0.05 (≈ 0.0884 µM) | 0.1 (≈ 0.177 µM) | 3.13 (≈ 5.53 µM) | ≤ 0.025 | 0.05 (≈ 0.0884 µM) | – | – | – | – | – | – |
| Nc1nc(/C(=N/OCF)C(=O)N[C@@H]2C(=O)N3C(C(=O)[O-])=C(/C=C/C[N+](N)(CCO)CCO)CS[C@H]23)ns1 [Example 107] | 0.2 (≈ 0.357 µM) | ≤ 0.025 | 0.05 (≈ 0.0892 µM) | 1.56 (≈ 2.78 µM) | 0.05 (≈ 0.0892 µM) | ≤ 0.025 | – | – | – | – | – | – |
| Nc1nc(/C(=N/OCF)C(=O)N[C@@H]2C(=O)N3C(C(=O)[O-])=C(/C=C/C[n+]4ccc(C(=O)N5CCOCC5)cc4)CS[C@H]23)ns1 [Example 108] | 0.4 (≈ 0.632 µM) | 0.05 (≈ 0.079 µM) | 0.1 (≈ 0.158 µM) | 3.13 (≈ 4.95 µM) | 0.05 (≈ 0.079 µM) | ≤ 0.025 | – | – | – | – | – | – |
| C[N+](C)(C/C=C/C1=C(C(=O)[O-])N2C(=O)[C@@H](NC(=O)/C(=N\OC(F)F)c3nsc(N)n3)[C@H]2SC1)CC(N)=O [Example 114, 7β-[2-(5-Amino-1,2,4-thiadiazol-3-yl)-(Z)-2-difluoromethoxyiminoacetamido]-3-[(E)-3-(dimethylcarbamoylmethylammonio)-1-propen-1-yl]-3-cephem-4-carboxylate] | 0.2 (≈ 0.357 µM) | ≤ 0.025 | 0.05 (≈ 0.0892 µM) | 0.8 (≈ 1.43 µM) | 0.05 (≈ 0.0892 µM) | ≤ 0.025 | – | – | – | – | – | – |
| Nc1nc(/C(=N/OC(F)F)C(=O)N[C@@H]2C(=O)N3C(C(=O)[O-])=C(/C=C/C[n+]4ccc(C(=O)O)cc4)CS[C@H]23)ns1 [Example 115] | 0.8 (≈ 1.38 µM) | ≤ 0.025 | 0.05 (≈ 0.086 µM) | 3.13 (≈ 5.38 µM) | ≤ 0.025 | ≤ 0.025 | – | – | – | – | – | – |
